The values that follow come from US20260091082A1, “CYCLIC PEPTIDE DERIVATIVE COMPOSITION FOR TREATING OR PREVENTING EYE DISEASE” (DKS Co. Ltd., priority 2022, published 2026).

Series [1] relates to laser-induced choroidal neovascularization rat model. The series is described as follows: Laser-induced choroidal neovascularization rat model: CNV area in choroidal flat mount (FITC-dextran). The format is in vivo. Particulars: for Area of CNV Lesion, Mean: 14 days 4 times a day, N=10; for Area of CNV Lesion, Mean / Individual Value of CNV Area in Each Animal: 14 days after laser. The protocol: The groups were set as in Table 8 below. Laser irradiation was performed on the right eye in 10 animals in each group. EYLEA (registered trademark) was administered intravitreally into the right eye of individuals in Group 2 immediately after laser irradiation. For the individuals of Groups 1, 3, and 4, eyedrop administration of the administration substances of each group was performed four times a day from the day of laser irradiation to the day before eyeball enucleation.
Animals to be laser-irradiated were subjected to pupil dilation with Mydorin (registered trademark) P ophthalmic solution, and subjected to general anesthesia by intramuscular injection of a mixed solution of ketamine hydrochloride/xylazine hydrochloride (4:1, v/v) (1 mL/kg) into the thigh muscle. Then, fundus of the right eye was then observed using a slit lamp (SL-130, Carl Zeiss Meditec AG), and laser irradiation was performed at six locations using a green laser photocoagulation device (GYC-500, Nidek Co., Ltd.), avoiding thick capillaries of the retina. The laser conditions were a wavelength of 532 nm (green), a spot size of 50 μm, an irradiation time of 0.1 sec, and a laser irradiation intensity of 300 mW. Except for the individuals to be administered EYLEA (registered trademark), sodium hyaluronate (Hyalein (registered trademark) ophthalmic solution 0.3%, Santen Pharmaceutical Co., Ltd.) as an eye drop for treatment of corneal and conjunctival epithelial disorders was instilled into both eyes after laser irradiation.
Levofloxacin hydrate (CRAVIT (registered trademark) 1.5% ophthalmic solution, Santen Pharmaceutical Co., Ltd.) as a broad-spectrum antibacterial eye drop and oxybuprocaine hydrochloride (Benoxil (registered trademark) 0.4% ophthalmic solution, Santen Pharmaceutical Co., Ltd.) as an ophthalmic topical anesthetic were once instilled into the right eye of rats in Group 2 (EYLEA (registered trademark) administration group) after end of laser irradiation, and then EYLEA (registered trademark) was intravitreally administered at a dose of 200 μg/5 μL/eye using a 33 G two-stage injection needle and a microsyringe (Ito Manufacturing Co., Ltd.). The microsyringe was washed with D-PBS before administration. Hyalein (registered trademark) ophthalmic solution 0.3% was instilled into both eyes after intravitreal administration.
Eyedrop administration of the test substance and the negative control administration solution was performed in a volume of 5 μL/eye using a micropipette (Eppendorf Research Plus V, Eppendorf) at the administration period and the number of times determined for each group (see Group constitution table of Item (2)). At that time, since a test substance solution adheres to an outer side of the tip, care was taken so that the adhering test substance solution was wiped off with a Kimwipe once each time of eyedrop administration, and an excessive amount of the test substance solution was not instilled. In addition, although the tip of the pipette tip was sharp, care was taken not to damage the eyeball surface. Immediately before administration, the administration solution was lightly (about several seconds) centrifuged using a small microcentrifuge Wonder Spin, and the supernatant was used for administration.
Fourteen days after laser irradiation (Day 14), under general anesthesia by intramuscular femoral administration (1 mL/kg) of a ketamine hydrochloride/xylazine hydrochloride (4:1, v/v) mixed solution, a 4% FITC-dextran solution was administered to the tail vein at a dose of 40 mg/l mL/animal.
After 1 minute from the tail vein administration of the 4% FITC-dextran solution, rats were euthanized by excessive anesthesia by administration of 129.6 mg/mL sodium pentobarbital solution and the right eye ball was enucleated. The enucleated eyeball was fixed in a 4% paraformaldehyde phosphate buffer (FUJIFILM Wako Pure Chemical Corporation, hereinafter referred to as 4% PFA) for 12 to 30 hours at normal temperature. […]

A short description of series [2]: General condition observation (clinical signs) in anterior chamber aqueous humor pressure load rat model. The format is in vivo, Rat; Slc: SD. Particulars: 1 mg/mL eye drop, right eye, per animal. Details: key: —: No anormal sign. The protocol: • Species and strains: Rat; Slc: SD • Number of animals on arrival and sex: 50 males • Age in weeks at arrival: 6 weeks old • Body weight range at arrival: 147.2 to 170.0 g • Source: Japan SLC, Inc.
The body weight of the animals was measured at a frequency of once a week or more, and the general condition observation was performed every day.
• Administration route: Eyedrop administration, intravenous administration • Administration method (eyedrop): Eyedrop administration was performed on a treated eye (right eye) of a rat using a micropipette 4 times a day (at intervals of 1.5 hours or more). • Administration method (intravenous): The amount of administration solution, calculated from the body weight on the day of administration, was administered from the tail vein using a syringe and an injection needle about 30 minutes before ischemic load. • Time of administration: Administration was performed according to the following schedule.

Several values for one entry are separate records, joined by “and”; a condition that tells them apart may be missing. Equal entries are not always repeated. Entries after “also recorded” stand apart in the source; their conditions may differ.

Take `CC[C@@]1(C)Oc2cc(ccc2O)C[C@H](NC)C(=O)N[C@@H](C(C)C)C(=O)N[C@@H]1C(=O)N[C@@H](CC(=O)O)C(=O)O` [Compound 9]: the “Area of CNV Lesion, Mean” value is listed as 471160.8 pixel in series [1] (Group 3, eye drop 5 μg/5 μL/eye (1 mg/mL)) and 444173.4 pixel in series [1] (Group 4, eye drop 50 μg/5 μL/eye (10 mg/mL)). In addition, the “Individual Value of CNV Area in Each Animal” value was 330375.8 pixel and 515551.8 pixel and 492136.5 pixel and 558285.0 pixel and 496494.0 pixel and 466828.5 pixel and 460996.3 pixel and 460127.0 pixel and 449544.0 pixel and 481268.8 pixel in series [1] (Group 3 individual animals, eye drop 5 μg/5 μL/eye); 313878.7 pixel and 591175.3 pixel and 382504.5 pixel and 527509.5 pixel and 426003.0 pixel and 447473.0 pixel and 394615.5 pixel and 494652.3 pixel and 438691.5 pixel and 425230.3 pixel in series [1] (Group 4 individual animals, eye drop 50 μg/5 μL/eye). For the same compound, the “CNV area compared with Group 1 (saline) / drug efficacy, in words” value in series [1] (eyedrop 1 mg/mL (Group 3) and 10 mg/mL (Group 4), Dunnett's test) is on record as “no significant difference in CNV area was observed; also recorded: no drug efficacy on CNV area was observed”. In addition, the “Dose dependence of CNV area reduction, in words” value in series [1] (eyedrop 1 mg/mL and 10 mg/mL, 4 times/day for 14 days) is reported as “reduction in CNV area correlated with the eyedrop administration dose was confirmed”. The Clinical signs result in series [2] (Day 0, animals 201-210 (test group 2, dosed on the 2 days before model creation)) was “—”; in series [2] (Day 0, animals 301-310 (test group 3, dosed 13 days from the day after model creation)), “—”; in series [2] (Day 1, animals 201-210 (test group 2, dosed on the 2 days before model creation)), “—”; in series [2] (Day 1, animals 301-310 (test group 3, dosed 13 days from the day after model creation)) it was “—”; in series [2] (Day 2, animals 201-210 (test group 2, dosed on the 2 days before model creation)) it was “—”; in series [2] (Day 2, animals 301-310 (test group 3, dosed 13 days from the day after model creation)) it was “—”. In addition, the Clinical signs entry is listed as “—” in series [2] (Day 3, animals 201-210 (test group 2, dosed on the 2 days before model creation)); “—” in series [2] (Day 3, animals 301-310 (test group 3, dosed 13 days from the day after model creation)); “—” in series [2] (Day 4, animals 201-210 (test group 2, dosed on the 2 days before model creation)); “—” in series [2] (Day 4, animals 301-310 (test group 3, dosed 13 days from the day after model creation)); “—” in series [2] (Day 5, animals 201-210 (test group 2, dosed on the 2 days before model creation)); “—” in series [2] (Day 5, animals 301-310 (test group 3, dosed 13 days from the day after model creation)). Further, the Clinical signs result in series [2] (Day 6, animals 201-210 (test group 2, dosed on the 2 days before model creation)) is “—”; in series [2] (Day 6, animals 301-310 (test group 3, dosed 13 days from the day after model creation)), “—”; in series [2] (Day −1, animals 201-210 (test group 2, dosed on the 2 days before model creation)) it was “—”; in series [2] (Day −1, animals 301-310 (test group 3, dosed 13 days from the day after model creation)), “—”; in series [2] (Day −2, animals 201-210 (test group 2, dosed on the 2 days before model creation)), “—”; in series [2] (Day −2, animals 301-310 (test group 3, dosed 13 days from the day after model creation)) it was “—”.
